From patent publication US9708314B2, “Heterocyclic amide compound” (NISSAN CHEMICAL INDUSTRIES, LTD., priority 2013, dated 2017)

What was measured:
Assay type in all cases: in vivo
[1] = tested on: transplanted Oryza sativa; assay: Test Example 1: effect on crop, application before weed generation in submerged conditions; conditions: Application herbicide amount 320 g/ha; Seventeenth Table
In short: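 Alluvial soil in Wagner pots flooded to 4 cm water depth; weed seeds sown and 2.5 leaf stage rice seedlings transplanted. Emulsion diluted in water applied to water surface on sowing day at stated g/ha. Greenhouse 25° C. to 30° C.; effects scored 0–5 by herbicidal ratio after three weeks.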

[2] = tested on: directly sowed Oryza sativa; assay: Test Example 3: effect on crop by application to foliage (Wagner pot, water depth 0.1-0.5 cm); conditions: Nineteenth Table; application to foliage; application herbicide amount 320 g/ha
In short: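 Seeds were sown in alluvial soil in Wagner pots, grown for 14 days at 25–30 °C, then sprayed uniformly on foliage with the emulsified compound diluted to a given rate per hectare. Injury was graded three weeks after treatment from 0 (≤5%) to 5 (≥90%).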

Galium spurium = assay: Test Example 4: herbicidal effect by application to foliage (diluvial soil, plastic box); conditions: 320 g/ha; for Q (Galium spurium) herbicidal effect grade: foliage application; for herbicidal effect, Q (Galium spurium): application to foliage
In short: (§1)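 Scores run from 0 (herbicidal ratio ≤5%) to 5 (≥90%, almost fully withered) and were assessed three weeks after foliar spraying. Seedlings had been raised for 14 days at 25-30° C in sterilized diluvial soil before treatment, with the emulsion diluted in water to the stated g/ha dose.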

[3] = tested on: Beta vulgaris ssp. vulgaris; assay: Test Example 4: effect on crop by application to foliage (diluvial soil, plastic box); conditions: 320 g/ha; for f (Beta vulgaris ssp. vulgaris) effect on crop grade: foliage application; for effect on crop, f (Beta vulgaris ssp. vulgaris): application to foliage
In short: as §1

Brassica campestris L. = assay: as above; conditions: 320 g/ha; for g (Brassica campestris L.) effect on crop grade: foliage application; for effect on crop, g (Brassica campestris L.): application to foliage
In short: as §1

Glycine max = assay: as above; conditions: 320 g/ha; for c (Glycine max) effect on crop grade: foliage application; for effect on crop, c (Glycine max): application to foliage
In short: as §1

Triticum aestivum = assay: as above; conditions: 320 g/ha; for e (Triticum aestivum) effect on crop grade: foliage application; for effect on crop, e (Triticum aestivum): application to foliage
In short: as §1

Zea mays = assay: as above; conditions: 320 g/ha; for b (Zea mays) effect on crop grade: foliage application; for effect on crop, b (Zea mays): application to foliage
In short: as §1

[4] = tested on: directly sowed Oryza sativa; assay: as above; conditions: 320 g/ha; for d (directly sowed Oryza sativa) effect on crop grade: foliage application; for effect on crop, d (directly sowed Oryza sativa): application to foliage
In short: as §1

Compound	a: transplanted Oryza sativa (effect on crop grade) [1]	b (effect on crop grade) [2]	Q (Galium spurium) herbicidal effect grade (Galium spurium)	f (Beta vulgaris ssp. vulgaris) effect on crop grade [3]	g (Brassica campestris L.) effect on crop grade (Brassica campestris L.)	c (Glycine max) effect on crop grade (Glycine max)	e (Triticum aestivum) effect on crop grade (Triticum aestivum)	b (Zea mays) effect on crop grade (Zea mays)	d (directly sowed Oryza sativa) effect on crop grade [4]	herbicidal effect, Q (Galium spurium) (Galium spurium)	effect on crop, f (Beta vulgaris ssp. vulgaris) [3]	effect on crop, g (Brassica campestris L.) (Brassica campestris L.)	effect on crop, c (Glycine max) (Glycine max)	effect on crop, e (Triticum aestivum) (Triticum aestivum)	effect on crop, b (Zea mays) (Zea mays)	effect on crop, d (directly sowed Oryza sativa) [4]
COc1ccccc1-c1nnc2c(C(=O)Nc3nnnn3C)ccc(C(F)(F)F)n12 [2-045]	5 (Herbicidal ratio of 90% or more (almost completely withered))	5 (Herbicidal ratio of 90% or more (almost completely withered))	3 (Herbicidal ratio of 40% or more and less than 70%)	5 (Herbicidal ratio of 90% or more (almost completely withered))	5 (Herbicidal ratio of 90% or more (almost completely withered))	3 (Herbicidal ratio of 40% or more and less than 70%)	1 (Herbicidal ratio of 5% or more and less than 20%)	4 (Herbicidal ratio of 70% or more and less than 90%)	4 (Herbicidal ratio of 70% or more and less than 90%)							
Cn1nnnc1NC(=O)c1ccc(C(F)(F)F)n2c(SCc3ccccc3)nnc12 [2-076]	2 (Herbicidal ratio of 20% or more and less than 40%)	1 (Herbicidal ratio of 5% or more and less than 20%)								3 (Herbicidal ratio of 40% or more and less than 70%)	5 (Herbicidal ratio of 90% or more (almost completely withered))	4 (Herbicidal ratio of 70% or more and less than 90%)	0 (Herbicidal ratio of 5% or less (almost no effect))	0 (Herbicidal ratio of 5% or less (almost no effect))	1 (Herbicidal ratio of 5% or more and less than 20%)	1 (Herbicidal ratio of 5% or more and less than 20%)
Cn1nnnc1NC(=O)c1ccc(C(F)(F)F)n2c(N3CCSCC3)nnc12 [2-078]	4 (Herbicidal ratio of 70% or more and less than 90%)	4 (Herbicidal ratio of 70% or more and less than 90%)								4 (Herbicidal ratio of 70% or more and less than 90%)	5 (Herbicidal ratio of 90% or more (almost completely withered))	5 (Herbicidal ratio of 90% or more (almost completely withered))	1 (Herbicidal ratio of 5% or more and less than 20%)	2 (Herbicidal ratio of 20% or more and less than 40%)	4 (Herbicidal ratio of 70% or more and less than 90%)	4 (Herbicidal ratio of 70% or more and less than 90%)
COC(=O)Cn1nnnc1NC(=O)c1ccc(C(F)(F)F)n2c(C(C)C)nnc12 [2-046]	0 (Herbicidal ratio of 5% or less (almost no effect))	0 (Herbicidal ratio of 5% or less (almost no effect))	1 (Herbicidal ratio of 5% or more and less than 20%)	2 (Herbicidal ratio of 20% or more and less than 40%)	0 (Herbicidal ratio of 5% or less (almost no effect))	0 (Herbicidal ratio of 5% or less (almost no effect))	0 (Herbicidal ratio of 5% or less (almost no effect))	0 (Herbicidal ratio of 5% or less (almost no effect))	0 (Herbicidal ratio of 5% or less (almost no effect))							
